{
  "source": "paper PMC10622841",
  "about": "“Structural analysis of a bacterial UDP-sugar 2-epimerase reveals the active site architecture before and after catalysis” (The Journal of Biological Chemistry, 2023)",
  "key": {"[1]": {"biological_target": "T1, T. thermophilus 2-epimerase (Thermus thermophilus, UniProt Q72KY0, D98N)", "T1 construct": "gene TT_C0285; full length, recombinant in E. coli Rosetta2(DE3); tag-free (rTEV-cut N-terminal His tag); homodimer, 82 kDa by gel filtration", "T1 sequence (Q72KY0 entry or part of it D98N)": "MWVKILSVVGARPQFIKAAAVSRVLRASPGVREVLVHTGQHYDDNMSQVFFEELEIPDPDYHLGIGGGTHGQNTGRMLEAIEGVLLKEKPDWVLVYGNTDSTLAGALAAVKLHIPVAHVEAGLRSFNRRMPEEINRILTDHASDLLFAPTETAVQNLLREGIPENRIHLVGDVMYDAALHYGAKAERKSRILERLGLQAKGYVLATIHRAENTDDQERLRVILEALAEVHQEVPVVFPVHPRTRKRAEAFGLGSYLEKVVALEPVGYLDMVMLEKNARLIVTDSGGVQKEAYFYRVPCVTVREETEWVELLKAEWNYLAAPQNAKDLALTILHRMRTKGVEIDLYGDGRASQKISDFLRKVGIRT", "experiment": "X-ray crystallography", "type": "binding", "conditions": "active site; pH 6.0-9.0; C- or N-terminal His tag"}, "[2]": {"biological_target": "T1, T. thermophilus 2-epimerase", "experiment": "X-ray crystallography; HPLC and mass spectrometry of copurified ligand", "type": "binding", "conditions": "with UDP-GlcNAc3NAcA in the active site, pH 6.0-9.0"}, "[3]": {"biological_target": "T2, T. thermophilus 2-epimerase (Thermus thermophilus, UniProt Q72KY0)", "T2 construct": "gene TT_C0285; full length, recombinant in E. coli Rosetta2(DE3); tag-free (rTEV-cut N-terminal His tag); homodimer, 82 kDa by gel filtration", "T2 sequence (Q72KY0 1-365)": "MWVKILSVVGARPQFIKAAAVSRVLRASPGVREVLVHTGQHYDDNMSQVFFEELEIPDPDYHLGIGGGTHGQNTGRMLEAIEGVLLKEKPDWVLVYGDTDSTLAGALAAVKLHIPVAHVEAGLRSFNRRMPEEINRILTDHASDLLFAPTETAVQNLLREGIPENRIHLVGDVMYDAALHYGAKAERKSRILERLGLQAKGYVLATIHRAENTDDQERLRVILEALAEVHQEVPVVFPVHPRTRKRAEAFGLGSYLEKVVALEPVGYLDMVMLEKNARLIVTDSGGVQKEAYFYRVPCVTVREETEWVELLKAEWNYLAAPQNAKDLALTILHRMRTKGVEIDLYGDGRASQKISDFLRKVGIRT", "experiment": "discontinuous anion-exchange HPLC assay", "type": "biochemical", "conditions": "allosteric activator; substrate UDP-GlcNAc3NAcA, pH 8.0, 37 °C, 44 μM enzyme"}, "[4]": {"biological_target": "T2, T. thermophilus 2-epimerase", "experiment": "X-ray crystallography", "type": "binding", "conditions": "active site; formed from UDP-GlcNAc3NAcA during crystallization; pH 5.0 and 9.0; C-terminal His tag"}, "[5]": {"biological_target": "T. thermophilus 2-epimerase, WT enzyme, tag-free (Thermus thermophilus HB27)", "experiment": "SEC; gel-filtration chromatography against standards (beta-amylase, acetyl CoA synthase, carbonic anhydrase, cytochrome c); conditions not given"}},
  "data": [
    {"compound": "CC(=O)N[C@H]1[C@@H](OP(=O)(O)OP(=O)(O)OC[C@H]2O[C@@H](n3ccc(=O)[nH]c3=O)[C@H](O)[C@@H]2O)O[C@H](C(=O)O)[C@@H](O)[C@@H]1NC(C)=O", "note": "[UDP-GlcNAc3NAcA]", "values": [
      {"measurement": "X-ray crystallography", "setting": "[1]", "result": "each subunit of the dimer contained both UDP-GlcNAc3NAcA in the active site and UDP-GlcNAc"}
    ]},
    {"compound": "CC(=O)N[C@H]1[C@@H](OP(=O)(O)OP(=O)(O)OC[C@H]2O[C@@H](n3ccc(=O)[nH]c3=O)[C@H](O)[C@@H]2O)O[C@H](CO)[C@@H](O)[C@@H]1O", "note": "[UDP-GlcNAc]", "values": [
      {"measurement": "X-ray crystallography; HPLC and mass spectrometry of copurified ligand", "setting": "[2]; allosteric pocket", "result": "UDP-GlcNAc3NAcA in the active site and UDP-GlcNAc in the auxiliary binding pocket"},
      {"measurement": "discontinuous anion-exchange HPLC assay", "setting": "[3]", "result": "the addition of UDP-GlcNAc was required for the reactions to proceed"}
    ]},
    {"compound": "CC(=O)N[C@@H]1[C@@H](OP(=O)(O)OP(=O)(O)OC[C@H]2O[C@@H](n3ccc(=O)[nH]c3=O)[C@H](O)[C@@H]2O)O[C@H](C(=O)O)[C@@H](O)[C@@H]1NC(C)=O", "note": "[UDP-ManNAc3NAcA]", "values": [
      {"measurement": "X-ray crystallography", "setting": "[4]", "result": "the product, namely UDP-ManNAc3NAcA, was observed in each subunit"}
    ]},
    {"compound": "O=c1ccn([C@@H]2O[C@H](COP(=O)(O)OP(=O)(O)O)[C@@H](O)[C@H]2O)c(=O)[nH]1", "note": "[UDP]", "values": [
      {"measurement": "X-ray crystallography; HPLC and mass spectrometry of copurified ligand", "setting": "[2]; allosteric (auxiliary) pocket", "result": "UDP-GlcNAc3NAcA was bound in the active site and UDP in the auxiliary binding pocket"}
    ]},
    {"compound": "T. thermophilus 2-epimerase, WT enzyme, tag-free", "values": [
      {"measurement": "stoichiometry N", "setting": "[5]", "result": 2}
    ]}
  ]
}
